Where two headings read alike, the source gives them in different places.
How the values were obtained:
[1] = target: H1N1 neuraminidase (NA), group-1 (Influenza A virus, UniProt P03468); assay: biochemical
[2] = system: A/PR/8/34 (H1N1) virus in MDCK cells; assay: microbe, parasite or virus in culture; assay type: cell-based, influenza A virus H1N1; details: read-out: EC50 towards influenza virus H1N1
[3] = system: A/Wisconsin/67/05 (H3N2) virus in MDCK cells; assay: microbe, parasite or virus in culture; assay type: cell-based, influenza A virus H3N2; details: for EC50: read-out: EC50 towards influenza virus H3N2
in vitro = details: dog
[4] = Influenza A virus, H1N1|PR/8, MDCK

Chain of H1N1 neuraminidase (NA), group-1 (P03468 36-454 limits assumed): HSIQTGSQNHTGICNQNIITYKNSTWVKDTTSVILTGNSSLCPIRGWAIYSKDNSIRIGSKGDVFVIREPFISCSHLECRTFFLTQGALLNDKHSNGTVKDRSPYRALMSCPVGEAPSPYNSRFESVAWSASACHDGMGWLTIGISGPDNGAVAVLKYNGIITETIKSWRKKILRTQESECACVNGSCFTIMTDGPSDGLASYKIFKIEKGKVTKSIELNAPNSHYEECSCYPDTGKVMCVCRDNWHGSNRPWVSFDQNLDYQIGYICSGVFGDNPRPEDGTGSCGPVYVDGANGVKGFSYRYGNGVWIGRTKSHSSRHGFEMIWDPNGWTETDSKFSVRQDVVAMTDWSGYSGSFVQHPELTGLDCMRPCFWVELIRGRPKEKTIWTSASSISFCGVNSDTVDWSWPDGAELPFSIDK

SMILES: CCC(CC)O[C@@H]1C=C(C(=O)O)C[C@H](NCc2ccc(N3CCC3)cc2)[C@H]1NC(C)=O [6n, (3R,4R,5S)-4-acetamido-5-((4-(azetidin-1-yl)benzyl)amino)-3-(pentan-3-yloxy)cyclohex-1-ene-1-carboxylic acid]
- IC50 [1]: 0.14 ± 0.01 µM

SMILES: CCC(CC)O[C@@H]1C=C(C(=O)O)C[C@H](NCc2ccc(N3CCC4(CCN(C(=O)OC(C)(C)C)C4)C3)cc2)[C@H]1NC(C)=O (stereo partly drawn) [6b, (3R,4R,5S)-4-acetamido-5-((4–(7-(tert-butoxycarbonyl)-2,7-diazaspiro[4.4]nonan-2-yl)benzyl)amino)-3-(pentan-3-yloxy)cyclohex-1-ene-1-carboxylic acid]
- IC50 [1]: 0.4 ± 0.033 µM

SMILES: CCC(CC)O[C@@H]1C=C(C(=O)O)C[C@H](NCc2ccc(-c3c(C)nc(N)nc3C)cc2)[C@H]1NC(C)=O [3e, (3R,4R,5S)-4-acetamido-5-((4–(2-amino-4,6-dimethylpyrimidin-5-yl)benzyl)amino)-3-(pentan-3-yloxy)cyclohex-1-ene-1-carboxylic acid]
- IC50 [1]: 8.06 ± 0.48 µM

SMILES: CCC(CC)O[C@@H]1C=C(C(=O)O)C[C@H](NCc2ccc(N(C)CC)cc2)[C@H]1NC(C)=O [6o, (3R,4R,5S)-4-acetamido-5-((4-(ethyl(methyl)amino)benzyl)amino)-3-(pentan-3-yloxy)cyclohex-1-ene-1-carboxylic acid]
- IC50 [1]: 0.36 ± 0.018 µM

SMILES: CCC(CC)O[C@@H]1C=C(C(=O)O)C[C@H](NCc2ccc(-c3cnc(Cl)nc3)cc2)[C@H]1NC(C)=O [3d, (3R,4R,5S)-4-acetamido-5-((4–(2-chloropyrimidin-5-yl)benzyl)amino)-3-(pentan-3-yloxy)cyclohex-1-ene-1-carboxylic acid]
- IC50 [1]: 4.34 ± 0.36 µM

SMILES: CCC(CC)O[C@@H]1C=C(C(=O)O)C[C@H](NCc2ccc(N3CC4C(C3)C4(C)C)cc2)[C@H]1NC(C)=O (stereo partly drawn) [6f, (3R,4R,5S)-4-acetamido-5-((4–(6,6-dimethyl-3-azabicyclo[3.1.0]hexan-3-yl)benzyl)amino)-3-(pentan-3-yloxy)cyclohex-1-ene-1-carboxylic acid]
- IC50 [1]: 0.43 ± 0.036 µM

SMILES: CCC(CC)O[C@@H]1C=C(C(=O)O)C[C@H](N)[C@H]1NC(C)=O [OSC, oseltamivir carboxylate, reference compound]
- EC50 [3]: 0.36 ± 0.16 µM
- CC50 (in vitro): > 250 µM

SMILES: CCC(CC)O[C@@H]1C=C(C(=O)O)C[C@H](NCc2ccc(N3CC4CCCC4C3)cc2)[C@H]1NC(C)=O (stereo partly drawn) [6h, (3R,4R,5S)-4-acetamido-5-((4-(hexahydrocyclopenta[c]pyrrol-2(1H)-yl)benzyl)amino)-3-(pentan-3-yloxy)cyclohex-1-ene-1-carboxylic acid]
- IC50 [1]: 0.3 ± 0.0016 µM

SMILES: CCC(CC)O[C@@H]1C=C(C(=O)O)C[C@H](NCc2ccc(-c3cncnc3)cc2)[C@H]1NC(C)=O [3c, (3R,4R,5S)-4-acetamido-3-(pentan-3-yloxy)-5-((4-(pyrimidin-5-yl)benzyl)amino)cyclohex-1-ene-1-carboxylic acid]
- IC50 [1]: 12.1 ± 1.1 µM

SMILES: CCC(CC)O[C@@H]1C=C(C(=O)O)C[C@H](NCc2ccc(N3CCC[C@H]3C)cc2)[C@H]1NC(C)=O [6k, (3R,4R,5S)-4-acetamido-5-((4-((R)-2-methylpyrrolidin-1-yl)benzyl)amino)-3-(pentan-3-yloxy)cyclohex-1-ene-1-carboxylic acid]
- EC50 [2, 4]: 0.02 ± 0.01 µM
- fold activity enhancement over OSC against H3N2 virus [3]: ~3 fold
- fold activity enhancement over zanamivir (ZA) against H3N2 virus [3]: ~2 fold
- EC50 ([3]; Influenza A virus, H3N2, MDCK): 0.12 ± 0.03 µM
- CC50 (in vitro): > 250 µM
- IC50 [1]: 0.084 ± 0.0072 µM

SMILES: CCC(CC)O[C@@H]1C=C(C(=O)O)C[C@H](NCc2ccc(N3CC4CCCCC4C3)cc2)[C@H]1NC(C)=O (stereo partly drawn) [6i, (3R,4R,5S)-4-acetamido-5-((4-(octahydro-2H-isoindol-2-yl)benzyl)amino)-3-(pentan-3-yloxy)cyclohex-1-ene-1-carboxylic acid]
- EC50 [2, 4]: 0.03 ± 0.03 µM
- EC50 ([3]; Influenza A virus, H3N2, MDCK): 0.32 ± 0.08 µM
- CC50 (in vitro): > 250 µM
- IC50 [1]: 0.15 ± 0.031 µM

SMILES: CCC(CC)O[C@@H]1C=C(C(=O)O)C[C@H](NCc2ccc(N3CC4(CN(C(=O)OC(C)(C)C)C4)C3)cc2)[C@H]1NC(C)=O [6d, (3R,4R,5S)-4-acetamido-5-((4–(6-(tert-butoxycarbonyl)-2,6-diazaspiro[3.3]heptan-2-yl)benzyl)amino)-3-(pentan-3-yloxy)cyclohex-1-ene-1-carboxylic acid]
- IC50 [1]: 3.1 ± 0.24 µM

SMILES: CCC(CC)O[C@@H]1C=C(C(=O)O)C[C@H](NCc2ccc(N3CCC4(CC3)OCCO4)cc2)[C@H]1NC(C)=O [6e, (3R,4R,5S)-5-((4–(1,4-dioxa-8-azaspiro[4.5]decan-8-yl)benzyl)amino)-4-acetamido-3-(pentan-3-yloxy)cyclohex-1-ene-1-carboxylic acid]
- IC50 [1]: 1.99 ± 0.19 µM

SMILES: CCC(CC)O[C@@H]1C=C(C(=O)O)C[C@H](NCc2ccc(N3CCC4(CC3)CN(C(=O)OC(C)(C)C)C4)cc2)[C@H]1NC(C)=O [6a, (3R,4R,5S)-4-acetamido-5-((4–(2-(tert-butoxycarbonyl)-2,7-diazaspiro[3.5]nonan-7-yl)benzyl)amino)-3-(pentan-3-yloxy)cyclohex-1-ene-1-carboxylic acid]
- IC50 [1]: 3.94 ± 0.11 µM

SMILES: CCC(CC)O[C@@H]1C=C(C(=O)O)C[C@H](NCc2ccc(N3CC4(CCN(C(=O)OC(C)(C)C)CC4)C3)cc2)[C@H]1NC(C)=O [6c, (3R,4R,5S)-4-acetamido-5-((4–(7-(tert-butoxycarbonyl)-2,7-diazaspiro[3.5]nonan-2-yl)benzyl)amino)-3-(pentan-3-yloxy)cyclohex-1-ene-1-carboxylic acid]
- IC50 [1]: 1.4 ± 0.073 µM

SMILES: CC(=O)N[C@H]1[C@H]([C@H](O)[C@H](O)CO)OC(C(=O)O)=C[C@@H]1N=C(N)N [ZA, zanamivir, reference compound]
- EC50 ([3]; Influenza A virus, H3N2, MDCK): 0.27 ± 0.03 µM
- CC50 (in vitro): > 250 µM

SMILES: CCC(CC)O[C@@H]1C=C(C(=O)O)C[C@H](NCc2ccc(N3CC4CC4C3)cc2)[C@H]1NC(C)=O (stereo partly drawn) [6g, (3R,4R,5S)-5-((4–(3-azabicyclo[3.1.0]hexan-3-yl)benzyl)amino)-4-acetamido-3-(pentan-3-yloxy)cyclohex-1-ene-1-carboxylic acid]
- EC50 [2, 4]: 0.03 ± 0.03 µM
- fold activity enhancement over zanamivir (ZA) against H3N2 virus [3]: ~2 fold
- EC50 ([3]; Influenza A virus, H3N2, MDCK): 0.16 ± 0.08 µM
- CC50 (in vitro): > 250 µM
- IC50 [1]: 0.19 ± 0.0096 µM
